Here are results for eight molecules from PubChem BioAssay (NCI).

Several values for one entry are separate records, joined by “and”; a condition that tells them apart may be missing. Equal entries are not always repeated.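 Each compound was tested at five concentrations against cells in 96-well plates for 48 hours. GI50 = concentration required for 50% inhibition of growth. TGI: total growth inhibition.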

Among the test systems are MDA-MB-435; OVCAR-8 ovarian; SK-MEL-5 melanoma; SR leukemia; PC-3 prostate; CAKI-1 renal; NCI-H522 lung; MCF7 breast; HCT-116 colon; COLO 205 colon.
Test in all cases: DTP human tumour cell line panel, 48 h

As to `COC(=O)NC1C(C)OC(OC2C/C=C(/C)C3C=CC4C(OC5CC(OC6CCC(OC7CC(O)C(OC8CCC(O)C(C)O8)C(C)O7)C(C)O6)C(OC(C)=O)C(C)O5)C(C)CC(C)C4C3(C)/C(O)=C3/C(=O)OC4(CC(C=O)=CC(O)C4/C=C\2C)C3=O)CC1(C)[N+](=O)[O-]` (stereo unspecified), the TGI in the test with MDA-MB-435 is 1.06 µM; with OVCAR-8 ovarian, 3.85 µM and 2.73 µM; in the test on SK-MEL-5 melanoma, 1.95 µM and 0.511 µM; with SR leukemia, 11 µM; with PC-3 prostate, 7.29 µM; in the test with CAKI-1 renal it was 7.08 µM and 3.27 µM. In addition, the TGI in the test on NCI-H522 lung was 2.8 µM and 0.645 µM; in the test on MCF7 breast, 4.01 µM; in the test with HCT-116 colon, 2.05 µM and 0.289 µM; in the test on COLO 205 colon it was 2.71 µM and 1.08 µM. Besides, the 50% growth inhibitory concentration (GI50) in the test with OVCAR-8 ovarian was 0.265 µM; in the test on SK-MEL-5 melanoma, 0.2 µM; in the test on CAKI-1 renal, 1.05 µM; with NCI-H522 lung, 0.222 µM; in the test on HCT-116 colon, 0.146 µM; in the test on COLO 205 colon, 0.321 µM.
`CN=C(N)c1ccc(N=C(N)c2ccc(-c3ccc(C(N)=Nc4ccc(C(N)=NC)cc4)cc3)cc2)cc1`: the GI50 with MDA-MB-435 is 59.2 µM; in the test on OVCAR-8 ovarian, 52.1 µM; with SK-MEL-5 melanoma it was 33.6 µM; with SR leukemia it was over 100 µM; in the test with PC-3 prostate, over 100 µM; in the test on CAKI-1 renal, over 100 µM. In addition, the GI50 in the test on NCI-H522 lung was 18.4 µM; in the test with MCF7 breast, 19 µM; in the test on HCT-116 colon, 75.8 µM; with COLO 205 colon, 99.5 µM. For the same molecule, the TGI in the test on MDA-MB-435, with OVCAR-8 ovarian, in the test with SK-MEL-5 melanoma, with SR leukemia, with PC-3 prostate and with CAKI-1 renal was over 100 µM each time. The TGI in the test with NCI-H522 lung, in the test on MCF7 breast, with HCT-116 colon and in the test on COLO 205 colon was over 100 µM each time.
Turning to `Cc1ccc(CNc2ccc(Br)cc2)cc1`, the TGI in the test on MDA-MB-435 is over 100 µM; in the test with OVCAR-8 ovarian, 65.3 µM; in the test on SK-MEL-5 melanoma, 30.8 µM; in the test with SR leukemia, over 100 µM; in the test with PC-3 prostate, over 100 µM; in the test on CAKI-1 renal, over 100 µM. Also, the TGI is 43.9 µM with NCI-H522 lung, 61 µM with MCF7 breast, over 100 µM with HCT-116 colon and 49.7 µM with COLO 205 colon.
With `C/C(=N\O)c1ccc2ccc3ccccc3c2c1`, the total growth inhibition concentration (TGI) is 46.9 µM with MDA-MB-435; 61.4 µM in the test with OVCAR-8 ovarian; 37 µM in the test with SK-MEL-5 melanoma; 48.7 µM in the test on SR leukemia; over 100 µM in the test with PC-3 prostate; over 100 µM in the test on CAKI-1 renal. For the same molecule, the TGI in the test with NCI-H522 lung was 72.7 µM; in the test on MCF7 breast, over 100 µM; in the test on HCT-116 colon, over 100 µM; in the test on COLO 205 colon, 76.6 µM.
On to `COc1cc(/C=C/C(=O)c2cccc(-n3cc(-c4cc(OC)c(OC)c(OC)c4)[nH]c3=O)c2)cc(OC)c1OC`, for which the GI50 with MDA-MB-435 was 2.11 µM; in the test on OVCAR-8 ovarian, 2.32 µM; in the test on SK-MEL-5 melanoma, 2.76 µM; with SR leukemia, 0.386 µM; in the test with PC-3 prostate it was 2.63 µM; with CAKI-1 renal, 2.89 µM. Further, the GI50 in the test with NCI-H522 lung is 1.05 µM; with MCF7 breast, 0.479 µM; with HCT-116 colon, 0.749 µM; in the test on COLO 205 colon, 1.52 µM. The concentration for total growth inhibition (TGI) is 9.92 µM in the test on MDA-MB-435; 8.9 µM with OVCAR-8 ovarian; 9.57 µM in the test with SK-MEL-5 melanoma; over 100 µM with SR leukemia; 18.6 µM with PC-3 prostate; 9.91 µM in the test with CAKI-1 renal. The TGI in the test on NCI-H522 lung stood at 2.53 µM; in the test on MCF7 breast, 2.44 µM; in the test on HCT-116 colon it was 2.13 µM; in the test on COLO 205 colon, 3.13 µM.
Regarding `C#Cc1cccc(Nc2ncnc3cc(NC(=O)CCl)ccc23)c1`, the GI50 with MDA-MB-435 was 1.27 µM; in the test with OVCAR-8 ovarian, 1.61 µM; in the test with SK-MEL-5 melanoma, 3.37 µM; in the test on SR leukemia it was 0.535 µM; in the test on PC-3 prostate, 3.69 µM; in the test on CAKI-1 renal, 1.78 µM. Also, the 50% growth inhibitory concentration (GI50) with NCI-H522 lung is 0.414 µM; with MCF7 breast, 0.961 µM; in the test on HCT-116 colon, 1.19 µM; with COLO 205 colon it was 3.62 µM. Further, the TGI in the test on MDA-MB-435 came to 5.17 µM; in the test on OVCAR-8 ovarian it was 6.58 µM; in the test on SK-MEL-5 melanoma it was 6.71 µM; in the test with SR leukemia, 4.08 µM; in the test with PC-3 prostate it was 8.33 µM; in the test with CAKI-1 renal it was 6.06 µM. Besides, the TGI in the test with NCI-H522 lung is 0.894 µM; in the test with MCF7 breast, 4.73 µM; in the test with HCT-116 colon, 4.15 µM; in the test on COLO 205 colon it was 7.45 µM.
For `O=C1NC(=NCCc2ccc(F)cc2)S/C1=C\c1ccc2ncccc2c1`, the GI50 was over 25 µM in the test with MDA-MB-435; over 25 µM in the test with OVCAR-8 ovarian; over 25 µM in the test on SK-MEL-5 melanoma; 7.09 µM in the test on SR leukemia; over 25 µM in the test with PC-3 prostate; over 25 µM in the test with CAKI-1 renal. Besides, the GI50 in the test with NCI-H522 lung was over 25 µM; in the test with MCF7 breast, over 23.1 µM; in the test on HCT-116 colon, 13.8 µM; in the test on COLO 205 colon it was over 25 µM. Also, the TGI in the test with MDA-MB-435, with OVCAR-8 ovarian, in the test on SK-MEL-5 melanoma, in the test on SR leukemia, in the test with PC-3 prostate and in the test on CAKI-1 renal was over 25 µM throughout. Moreover, the concentration for total growth inhibition (TGI) with NCI-H522 lung, with MCF7 breast, in the test with HCT-116 colon and with COLO 205 colon was over 25 µM each time.
Consider `O=C(Nc1ccc(Oc2ccc3nc(NC(=O)c4ccco4)[nH]c3c2)cc1)Nc1cc(C(F)(F)F)ccc1F`, for which the GI50 in the test on MDA-MB-435 is 0.973 µM; with OVCAR-8 ovarian it was 1.26 µM; with SK-MEL-5 melanoma it was 1.16 µM; with SR leukemia, 0.964 µM; in the test on PC-3 prostate it was 1.49 µM; in the test on CAKI-1 renal it was 1.81 µM. Further, the GI50 with NCI-H522 lung is 3.03 µM; in the test on MCF7 breast, 2.94 µM; in the test on HCT-116 colon, 0.437 µM; in the test on COLO 205 colon, 3.02 µM. Besides, the concentration for total growth inhibition (TGI) is 7.71 µM in the test with MDA-MB-435; 6.92 µM in the test with OVCAR-8 ovarian; 4.74 µM in the test on SK-MEL-5 melanoma; 7.36 µM in the test on SR leukemia; 8.59 µM with PC-3 prostate; over 14.4 µM with CAKI-1 renal. For the same molecule, the TGI in the test with NCI-H522 lung was determined as 9.55 µM; with MCF7 breast, 15.6 µM; in the test with HCT-116 colon, 4.57 µM; in the test with COLO 205 colon it was 11.4 µM.
